Test [1] addresses T1, CDKs and other kinases (Homo sapiens, UniProt P24941).
T1 construct: other: CDK2A; residual activity (%) at 10 μM CDK2A; compound at 10 μM
The test can be described thus: Radiometric kinase assay (Eurofins Pharma Discovery or Reaction Biology Corporation Kinase Profiler). It is filed as biochemical. The following applies: CDK2A; for remaining activity at 10 µM: compound at 10 μM, read-out: residual activity (%) at 10 μM CDK2A; for Ki: read-out: CDK inhibition, Ki (μM) CDK2A. An outline of the steps: (§1)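 Other CDKs and further kinases were profiled externally by radiometric assay. In-house ADP Glo assays covered CDK4/D1 and CDK6/D3 (RB-CTF substrate, pH 7.5 Tris buffer with MgCl2, DTT, BSA) and CDK9/T1 (RBER-IRStide substrate), 40 min at 37° C.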

In test [2] the target is T2, CDKs and other kinases (Homo sapiens, UniProt P50613).
T2 construct: other: CDK7H; residual activity (%) at 10 μM CDK7H; compound at 10 μM
The description is as above. The following applies: CDK7H; for remaining activity at 10 µM: compound at 10 μM, read-out: residual activity (%) at 10 μM CDK7H; for Ki: read-out: CDK inhibition, Ki (μM) CDK7H. It is filed as biochemical. In a few lines:
as §1

The target in test [3] is T3, CDKs and other kinases (Homo sapiens, UniProt P06493).
T3 construct: other: CDK1B; residual activity (%) at 10 μM CDK1B; compound at 10 μM
The test is described as above. The following applies: CDK1B; for remaining activity at 10 µM: compound at 10 μM, read-out: residual activity (%) at 10 μM CDK1B; for Ki: read-out: CDK inhibition, Ki (μM) CDK1B. It is filed as biochemical. In a few lines:
as §1

For a further test, the system named is leukemia cell lines. The test can be described thus: Resazurin cell viability assay on leukemia cell lines (72 h growth inhibition, GI50). It is filed as cell-based. The following applies: Homo sapiens, MV4-11 cells. In a few lines:
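Cells were exposed to compound, then viability was read by MTT (solid tumour lines) or resazurin reduction (leukaemia lines). Non-linear regression gave the concentration inhibiting 50% of cell growth.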
In general terms: Resazurin is reduced to fluorescent resorufin, in cell work by metabolically active cells.

The next test deals with CDK6/D3 (Homo sapiens, UniProt Q00534). Briefly: ADP Glo Kinase assay CDK6/D3. The following applies: CDK6D3; for remaining activity at 10 µM: compound at 10 μM, read-out: residual activity (%) at 10 μM CDK6D3. It is filed as biochemical. An outline of the steps:
(§2)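 ADP Glo luminescence, in-house: CDK4/D1, CDK6/D3 on RB-CTF substrate (Tris pH 7.5, MgCl2, DTT, BSA); CDK9/T1 on RBER-IRStide. Reaction 40 min, 37° C after ATP addition. 10-point 1:3 series, 10 μM to 0.5 nM. IC50 by 4-parameter logistic; Ki derived using ATP Km.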
In general terms: In ADP-Glo the light output rises with the ADP produced.

The next test deals with CDK9/T1 (Homo sapiens, UniProt P50750). The test can be described thus: ADP Glo Kinase assay CDK9/T1. It is filed as biochemical. The following applies: CDK9T1; read-out: CDK inhibition, Ki (μM) CDK9T1. In a few lines: as §2
The target in a further test is CDK4/D1 (Homo sapiens, UniProt P11802). Briefly: ADP Glo Kinase assay CDK4/D1. It is filed as biochemical. The following applies: CDK4D1; for remaining activity at 10 µM: compound at 10 μM, read-out: residual activity (%) at 10 μM CDK4D1. In a few lines: as §2

The record followed here is US11111245B2, “Derivatives of N-cycloalkyl/heterocycloalkyl-4-(imidazo[1,2-a]pyridine)pyrimidin-2-amine as therapeutic agents” (Aucentra Therapeutics Pty Ltd, priority 2017, dated 2021).

Sequence of CDK4/D1 (P11802 whole entry): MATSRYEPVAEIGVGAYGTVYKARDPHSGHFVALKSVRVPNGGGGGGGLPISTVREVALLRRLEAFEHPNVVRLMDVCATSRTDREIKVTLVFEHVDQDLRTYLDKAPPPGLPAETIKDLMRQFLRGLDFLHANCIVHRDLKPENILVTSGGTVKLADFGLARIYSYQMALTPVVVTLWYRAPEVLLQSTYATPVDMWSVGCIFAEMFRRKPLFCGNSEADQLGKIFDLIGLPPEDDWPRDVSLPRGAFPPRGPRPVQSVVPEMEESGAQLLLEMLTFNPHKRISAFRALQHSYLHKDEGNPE
Sequence of CDK4/D1 (P24385 whole entry partner): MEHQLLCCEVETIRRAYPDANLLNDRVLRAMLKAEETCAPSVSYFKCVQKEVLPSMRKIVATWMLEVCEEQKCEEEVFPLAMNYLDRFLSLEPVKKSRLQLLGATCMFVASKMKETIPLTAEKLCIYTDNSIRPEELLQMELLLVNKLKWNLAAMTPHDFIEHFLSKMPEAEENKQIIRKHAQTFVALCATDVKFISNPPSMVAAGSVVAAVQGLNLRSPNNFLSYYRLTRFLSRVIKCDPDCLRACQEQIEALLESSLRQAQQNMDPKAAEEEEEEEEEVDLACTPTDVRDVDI
T2 sequence (P50613 whole entry): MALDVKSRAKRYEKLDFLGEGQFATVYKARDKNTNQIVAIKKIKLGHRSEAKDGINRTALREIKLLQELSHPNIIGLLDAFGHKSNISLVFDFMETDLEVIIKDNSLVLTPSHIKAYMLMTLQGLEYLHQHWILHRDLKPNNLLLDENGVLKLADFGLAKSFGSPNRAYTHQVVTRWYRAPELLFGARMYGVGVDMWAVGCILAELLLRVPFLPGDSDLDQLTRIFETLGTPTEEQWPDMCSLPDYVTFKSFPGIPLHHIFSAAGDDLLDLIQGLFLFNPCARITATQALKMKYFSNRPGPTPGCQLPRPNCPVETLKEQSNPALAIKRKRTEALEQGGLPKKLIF
Sequence of CDK9/T1 (P50750 whole entry): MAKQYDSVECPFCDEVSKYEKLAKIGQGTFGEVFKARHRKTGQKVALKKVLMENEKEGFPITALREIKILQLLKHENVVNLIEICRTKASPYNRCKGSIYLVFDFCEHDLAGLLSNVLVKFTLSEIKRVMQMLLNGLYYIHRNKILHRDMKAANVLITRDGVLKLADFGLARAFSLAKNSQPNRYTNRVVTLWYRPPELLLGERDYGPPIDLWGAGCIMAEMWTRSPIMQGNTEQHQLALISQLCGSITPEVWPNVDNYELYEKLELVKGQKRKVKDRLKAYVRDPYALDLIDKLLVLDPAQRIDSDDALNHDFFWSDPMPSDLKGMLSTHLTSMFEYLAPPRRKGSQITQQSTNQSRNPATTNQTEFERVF
Sequence of CDK9/T1 (O60563 whole entry partner): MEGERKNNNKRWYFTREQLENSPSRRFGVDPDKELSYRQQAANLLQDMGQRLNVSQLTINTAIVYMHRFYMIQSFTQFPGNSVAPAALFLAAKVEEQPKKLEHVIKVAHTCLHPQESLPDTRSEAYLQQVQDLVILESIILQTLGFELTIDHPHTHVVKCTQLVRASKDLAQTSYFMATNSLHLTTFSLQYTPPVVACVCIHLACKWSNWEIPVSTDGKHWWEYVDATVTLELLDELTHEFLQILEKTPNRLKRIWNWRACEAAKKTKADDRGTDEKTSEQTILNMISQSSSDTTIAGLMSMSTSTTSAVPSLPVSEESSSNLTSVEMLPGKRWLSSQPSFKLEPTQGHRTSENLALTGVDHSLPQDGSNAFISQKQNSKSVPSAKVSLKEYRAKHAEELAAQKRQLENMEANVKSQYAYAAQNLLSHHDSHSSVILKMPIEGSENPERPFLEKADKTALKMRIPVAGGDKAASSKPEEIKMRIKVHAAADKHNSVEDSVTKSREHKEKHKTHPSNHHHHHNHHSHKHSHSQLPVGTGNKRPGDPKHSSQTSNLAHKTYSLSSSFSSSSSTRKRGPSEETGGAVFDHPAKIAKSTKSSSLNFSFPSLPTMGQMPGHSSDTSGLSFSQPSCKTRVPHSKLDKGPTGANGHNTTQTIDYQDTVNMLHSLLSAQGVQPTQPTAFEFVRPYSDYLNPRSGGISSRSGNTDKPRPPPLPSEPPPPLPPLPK
T3 sequence (P06493 whole entry): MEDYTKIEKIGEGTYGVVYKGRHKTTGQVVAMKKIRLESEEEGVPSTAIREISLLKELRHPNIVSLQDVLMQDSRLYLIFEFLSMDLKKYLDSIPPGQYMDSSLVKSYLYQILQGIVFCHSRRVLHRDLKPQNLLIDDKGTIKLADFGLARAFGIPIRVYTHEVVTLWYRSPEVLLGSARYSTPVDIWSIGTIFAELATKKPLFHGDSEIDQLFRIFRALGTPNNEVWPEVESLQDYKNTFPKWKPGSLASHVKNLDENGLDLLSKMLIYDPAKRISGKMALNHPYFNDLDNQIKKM
Sequence of CDK6/D3 (Q00534 whole entry): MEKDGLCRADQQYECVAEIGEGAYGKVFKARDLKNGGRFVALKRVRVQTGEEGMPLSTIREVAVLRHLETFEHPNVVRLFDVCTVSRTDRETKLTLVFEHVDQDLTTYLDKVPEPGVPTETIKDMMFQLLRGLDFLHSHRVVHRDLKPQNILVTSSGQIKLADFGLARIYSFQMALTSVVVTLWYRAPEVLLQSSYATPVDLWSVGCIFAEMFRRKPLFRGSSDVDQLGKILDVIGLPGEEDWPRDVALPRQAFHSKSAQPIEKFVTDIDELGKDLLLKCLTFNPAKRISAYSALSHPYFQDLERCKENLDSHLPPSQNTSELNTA
Sequence of CDK6/D3 (P30281 whole entry partner): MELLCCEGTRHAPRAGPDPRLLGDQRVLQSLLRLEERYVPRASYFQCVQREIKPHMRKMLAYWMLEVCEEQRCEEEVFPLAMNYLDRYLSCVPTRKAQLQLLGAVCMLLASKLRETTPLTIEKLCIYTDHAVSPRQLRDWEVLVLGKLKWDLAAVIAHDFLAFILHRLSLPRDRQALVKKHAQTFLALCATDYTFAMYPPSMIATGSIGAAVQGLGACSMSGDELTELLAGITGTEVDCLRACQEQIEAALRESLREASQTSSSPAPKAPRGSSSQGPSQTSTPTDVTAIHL

As a reminder, the GI50 is the concentration that inhibits growth by half. The low end stands for greater sensitivity of the cells, the high end for lower sensitivity of the cells. In general, Ki refers to a dissociation constant, usually derived from enzyme kinetics or from competition with a known ligand. On to `Cc1cnc(N[C@H]2CC[C@H](N)CC2)nc1-c1cnc2ccc(NC(=O)c3ccc(F)cc3)cn12` [Compound 72, N-(3-(2-(((1r,4r)-4-Aminocyclohexyl)amino)-5-methylpyrimidin-4-yl)imidazo[1,2-a]pyridin-6-yl)-4-fluorobenzamide], for which the remaining activity at 10 µM turned out to be 52% on CDKs and other kinases [1]; 57% at CDKs and other kinases [2]; 69% at CDKs and other kinases [3]; 85% on CDK6/D3; 77% at CDK4/D1. In the test with leukemia cell lines, this compound displayed a GI50 of 1.46 ± 0.476 µM. Also, the inhibitory constant (Ki) at CDK9/T1 amounted to 0.194 µM.
Consider `Cc1cnc(N[C@H]2CC[C@H](N)CC2)nc1-c1cnc2ccc(NC(=O)Cc3ccccc3)cn12` [Compound 73, N-(3-(2-(((1r,4r)-4-Aminocyclohexyl)amino)-5-methylpyrimidin-4-yl)imidazo[1,2-a]pyridin-6-yl)-2-phenylacetamide], for which the remaining activity at 10 µM amounted to 62% at CDKs and other kinases [1]; 63% on CDKs and other kinases [2]; 75% on CDKs and other kinases [3]; 49% at CDK6/D3; 53% on CDK4/D1. In addition, the GI50 in the test on leukemia cell lines is 0.752 ± 0.055 µM. Also, on CDK9/T1, the Ki worked out at 0.469 µM.
For the compound `Cc1cnc(N[C@H]2CC[C@H](N)CC2)nc1-c1cnc2ccc(Oc3cccnc3)cn12` [Compound 74, (1r,4r)-N^1-(5-Methyl-4-(6-(pyridin-3-yloxy)imidazo[1,2-a]pyridin-3-yl)pyrimidin-2-yl)cyclohexane-1,4-diamine], the remaining activity at 10 µM on CDKs and other kinases [1] turned out to be 11%; on CDKs and other kinases [2] it was 50%; at CDKs and other kinases [3], 39%; at CDK6/D3, 46%; at CDK4/D1, 41%. The same compound returned a GI50 in the test with leukemia cell lines of 0.349 ± 0.086 µM. The Ki on CDK9/T1 came to 0.02 µM.
Consider `N[C@H]1CC[C@H](Nc2ncc(Cl)c(-c3cnc4ccc(-c5ccccc5)cn34)n2)CC1` [Compound 79, (1r,4r)-N^1-(5-Chloro-4-(6-phenylimidazo[1,2-a]pyridin-3-yl)pyrimidin-2-yl)cyclohexane-1,4-diamine], for which the Ki at CDKs and other kinases [1] is 0.071 µM; at CDKs and other kinases [2], 0.079 µM; at CDKs and other kinases [3] it was 0.27 µM; at CDK9/T1 it was 0.004 µM. The compound further showed a GI50 with leukemia cell lines of 0.008 ± 0.001 µM. Moreover, the values for the remaining activity at 10 µM at CDK6/D3 and at CDK4/D1 were 80% and 13%, respectively.
For the compound `COc1ccc(-c2ccc3ncc(-c4nc(N[C@H]5CC[C@H](N)CC5)ncc4Cl)n3c2)cn1` [Compound 81, (1r,4r)-N^1-(5-Chloro-4-(6-(6-methoxypyridin-3-yl)imidazo[1,2-a]pyridin-3-yl)pyrimidin-2-yl)cyclohexane-1,4-diamine], the Ki at CDKs and other kinases [1] came out at 0.51 µM; on CDKs and other kinases [2], 0.21 µM; on CDKs and other kinases [3], 2.01 µM; on CDK6/D3 (read-out: CDK inhibition, Ki (μM) CDK6D3) it was 1.01 µM; at CDK9/T1, 0.008 µM; on CDK4/D1 (read-out: CDK inhibition, Ki (μM) CDK4D1), 1.58 µM. This compound also returned a GI50 with leukemia cell lines of 0.025 ± 0.011 µM.
On to `COc1ccc(-c2ccc3ncc(-c4nc(N[C@H]5CC[C@H](N)CC5)ncc4Cl)n3c2)cc1` [Compound 82, (1r,4r)-N^1-(5-Chloro-4-(6-(4-methoxyphenyl)imidazo [1,2-a]pyridin-3-yl)pyrimidin-2-yl)cyclohexane-1,4-diamine], for which the Ki amounted to 0.22 µM at CDKs and other kinases [1]; 0.15 µM at CDKs and other kinases [2]; 0.82 µM on CDKs and other kinases [3]; 0.018 µM at CDK9/T1. The same compound came in with a GI50 with leukemia cell lines of 0.054 ± 0.015 µM. Further, the results for the remaining activity at 10 µM on CDK6/D3 and at CDK4/D1 were 99% and 20%, respectively.
As for `Cc1noc(C)c1-c1ccc2ncc(-c3nc(N[C@H]4CC[C@H](N)CC4)ncc3Cl)n2c1` [Compound 83, (1r,4r)-N^1-(5-Chloro-4-(6-(3,5-dimethylisoxazol-4-yl)imidazo[1,2-a]pyridin-3-yl)pyrimidin-2-yl)cyclohexane-1,4-diamine], the Ki on CDKs and other kinases [1] is 0.91 µM; on CDKs and other kinases [2], 0.58 µM; on CDKs and other kinases [3] it was 2.56 µM; at CDK9/T1, 0.065 µM. Moreover, the GI50 with leukemia cell lines is 0.052 ± 0.011 µM. Moreover, the remaining activity at 10 µM on CDK6/D3 came out at 80%; at CDK4/D1 it was 27%.
Take `N[C@H]1CC[C@H](Nc2ncc(Cl)c(-c3cnc4ccc(-c5ccc(N6CCNCC6)nc5)cn34)n2)CC1` [Compound 84, (1r,4r)-N^1-(5-Chloro-4-(6-(6-(piperazin-1-yl)pyridin-3-yl)imidazo[1,2-a]pyridin-3-yl)pyrimidin-2-yl)cyclohexane-1,4-diamine]: the remaining activity at 10 µM was 39% on CDKs and other kinases [1]; 10% at CDKs and other kinases [2]; 51% at CDKs and other kinases [3]; 12% on CDK6/D3; 9% on CDK4/D1. Also, in the test with leukemia cell lines, the GI50 amounted to 0.035 ± 0.006 µM. Moreover, on CDK9/T1, the Ki is 0.033 µM.
As for `N[C@H]1CC[C@H](Nc2ncc(Cl)c(-c3cnc4c(-c5ccccc5)cc(C(F)(F)F)cn34)n2)CC1` [Compound 85, (1r,4r)-N^1-(5-Chloro-4-(8-phenyl-6-(trifluoromethyl)imidazo[1,2-a]pyridin-3-yl)pyrimidin-2-yl)cyclohexane-1,4-diamine], the Ki at CDKs and other kinases [1] was 0.77 µM; at CDKs and other kinases [2] it was 0.048 µM; on CDKs and other kinases [3], 7.44 µM; at CDK9/T1, 0.13 µM. In addition, it took 1.32 ± 0.549 µM to inhibit growth in the test with leukemia cell lines by half (GI50). The remaining activity at 10 µM at CDK6/D3 worked out at 43%; at CDK4/D1, 75%.
Take `N[C@H]1CC[C@H](Nc2ncc(Cl)c(-c3cnc4c(-c5cccnc5)cc(C(F)(F)F)cn34)n2)CC1` [Compound 86, (1r,4r)-N^1-(5-Chloro-4-(8-(pyridin-3-yl)-6-(trifluoromethyl)imidazo[1,2-a]pyridin-3-yl)pyrimidin-2-yl)cyclohexane-1,4-diamine]: the Ki at CDKs and other kinases [1] was determined as 0.25 µM; at CDKs and other kinases [2], 0.044 µM; on CDKs and other kinases [3], 2.64 µM; at CDK9/T1, 0.216 µM. Besides, the GI50 in the test with leukemia cell lines was found to be 0.086 ± 0.005 µM. In addition, the remaining activity at 10 µM at CDK6/D3 amounted to 47%; at CDK4/D1, 25%.
For `N[C@H]1CC[C@H](Nc2ncc(Cl)c(-c3cnc4ccc(NC(=O)c5ccccc5)cn34)n2)CC1` [Compound 87, N-(3-(2-(((1r,4r)-4-Aminocyclohexyl)amino)-5-chloropyrimidin-4-yl)imidazo[1,2-a]pyridin-6-yl) benzamide], the remaining activity at 10 µM on CDKs and other kinases [1] turned out to be 19%; on CDKs and other kinases [2] it was 14%; at CDKs and other kinases [3], 31%; on CDK6/D3 it was 39%; at CDK4/D1 it was 73%. In the test with leukemia cell lines, the GI50 was 0.135 ± 0.057 µM. On CDK9/T1, the inhibitory constant (Ki) stood at 0.073 µM.
A word on the residual activity: it is the signal under treatment as a percentage of the control signal. In the case of `Cc1cnc(N[C@H]2CC[C@H](NC3CCN(C)CC3)CC2)nc1-c1cnc2ccc(-c3ccccc3)cn12` [Compound 90, (1r,4r)-N^1-(5-Methyl-4-(6-phenylimidazo[1,2-a]pyridin-3-yl)pyrimidin-2-yl)-N4-(1-methylpiperidin-4-yl) cyclohexane-1,4-diamine], the remaining activity at 10 µM at CDKs and other kinases [1] worked out at 44%; at CDKs and other kinases [3], 57%; at CDK6/D3 it was 80%; at CDK4/D1 it was 24%. Besides, the residual activity at 10 µM on CDKs and other kinases [2] worked out at 295%. It took 0.229 ± 0.015 µM to inhibit growth in the test on leukemia cell lines by half (GI50). Further, the Ki on CDK9/T1 worked out at 0.211 µM.
For the compound `Cc1cnc(N[C@H]2CC[C@@H](N)CC2)nc1-c1cnc2ccc(-c3ccccc3)cn12` [Compound 91, (1s,4s)-N^1-(5-Methyl-4-(6-phenylimidazo[1,2-a]pyridin-3-yl)pyrimidin-2-yl)cyclohexane-1,4-diamine], the remaining activity at 10 µM at CDKs and other kinases [1] is 7%; on CDKs and other kinases [2] it was 19%; on CDKs and other kinases [3], 5%; at CDK6/D3, 41%; at CDK4/D1, 17%. The compound also showed a GI50 in the test on leukemia cell lines of 0.014 ± 0.007 µM. Moreover, on CDK9/T1, the inhibition constant (Ki) is 0.082 µM.
